Assay results: article PMC12339163, “Combining Plant Bioactives With Antibiotics for Enhanced Antibiofilm Activity Against Uropathogenic Staphylococcus spp. and Cytotoxicity Evaluation” (Advances in Pharmacological and Pharmaceutical Sciences, 2025)
Values after ≈ are worked out from the molar mass of the structure shown. Values joined by “and” are separate entries in the source; they are usually repeats but may differ in a detail not shown here. Identical values can stand only once. Like-named read-outs stand apart in the source and are kept apart here.

Legend:
[1] = system: S. aureus; assay: MIC and MBC, broth microdilution; format: cell-based, Staphylococcus aureus; conditions: geometric mean, S. aureus (n = 3)
Procedure: (§1) Seven clinical isolates of Staphylococcus spp. including 2 S. aureus, 3 S. saprophyticus, and 2 S. epidermidis were used. They were isolated from urine samples in our previous study. Two reference strains (S. aureus ATCC1026 and S. epidermidis ATCC35984) obtained from the American Type Culture Collection were also included. They were kept in the mixture of glycerol and Mueller Hinton Broth (MHB) (1:1) at −20°C, and the activation was achieved using the streak technique on Mueller Hinton agar (MHA) medium.
(§2) The MICs of ATBs and NPs were determined by the broth microdilution method as previously described. NPs and ATBs were, respectively, prepared at 4096 µg/mL and 512 µg/mL and serially diluted twofold with MHB in a 96-well microplate at a volume of 100 µL. Then, the wells were filled with 100 µL of inoculum (1.5 × 10^6 CFU/mL) to give final concentrations ranging from 1024 µg/mL to 0.5 µg/mL and 128 µg/mL to 0.062 µg/mL of NPs and ATBs, respectively. The microplates were incubated for 24 h at 37°C. Wells containing only bacterial inoculum were used as the negative control. After incubation, a volume of 40 µL of INT solution (0.2 mg/mL) was added to each well, and the microplate was incubated at 37°C for 30 min. Viable bacteria cells change the yellow dye of INT to a pink color. The MIC was considered as the lowest concentration of the sample at which there was no change in the coloration of the medium, corresponding to the complete inhibition of microbial growth.
(§3) All tests were performed in triplicate.

[2] = system: S. saprophyticus; assay: MIC and MBC, broth microdilution; format: cell-based, Staphylococcus saprophyticus; conditions: geometric mean, S. saprophyticus (n = 3)
Procedure: as §1, §2, §3

[3] = system: S. saprophyticus biofilm; assay: Biofilm inhibition assay (MBIC, MTT); format: cell-based, Staphylococcus saprophyticus; conditions: geometric mean, S. saprophyticus (n = 3); for minimal effective concentration: Staphylococcus saprophyticus, 24 h
Procedure: The biofilm formation inhibitory activity of NPs and ATBs was carried out according to the method previously described. A total of 100 µL of bacterial inoculum (1.5 × 10^6 CFU/mL) was used, and 100 µL of each sample was added to the microplate to achieve final concentrations ranging from 0.25 µg/mL to 128 µg/mL for ATBs and from 8 µg/mL to 1024 µg/mL for NPs. Then, the microplate was incubated at 37°C for 24 h. After incubation, the plates were gently emptied and washed three times with a phosphate buffer solution at pH 7.2. Then, the MTT solution (0.5 mg/mL) prepared in PBS was introduced into each well, and the microplate was further incubated at 37°C for 24 h. Untreated wells containing bacterial suspension and MHB supplemented with 1% glucose were considered positive controls, and wells containing only MHB+1% glucose without bacteria were used as blanks. After incubation, the MTT solution was aspirated, then 150 µL of DMSO was introduced to dissolve the formazan crystal formed by viable bacteria, and the optical density (OD) was measured at 570 nm using a microplate reader (VERSA-max). The percentage of biofilm inhibition was calculated using the formula below, and the minimal biofilm inhibitory concentration (MBIC) was recorded as the lowest concentration of NPs or ATBs that inhibited 100% of biofilm:(1) % biofilm inhibition=ODcontrol−ODblank−ODtest−ODblank/ODcontrol−ODblank×100.

[4] = system: S. epidermidis biofilm; assay: Biofilm eradication assay (MBEC, MTT); format: cell-based, Staphylococcus epidermidis; conditions: geometric mean, S. epidermidis (n = 3); for minimal effective concentration: Staphylococcus epidermidis, 24 h
Procedure: The determination of the biofilm eradication potential of NPs and ATBs was performed as previously described. Briefly, 100 µL of bacterial inoculum (1.5 × 10^6 CFU/mL) and 100 µL of MHB + 1% glucose were introduced into the microplate, incubated at 37°C for 24 h, and the microplate was gently emptied and washed three times with PBS. Then, 200 µL of ATBs or NPs at respective concentrations ranging from 8 to 1024 µg/mL and from 16 to 2048 µg/mL were incubated at 37°C for 24 h. Once incubation was completed, the microplate was processed as described above, and the percentage of biofilm eradication was calculated using the formula below. The minimal biofilm eradicating concentration (MBEC) was recorded as the lowest concentration of the test sample that reduces 100% of biofilm:(2) % biofilm eradication=ODcontrol−ODblank−ODtest−ODblank/ODcontrol−ODblank×100.

[5] = system: planktonic cells of Staphylococcus aureus; assay: Checkerboard combination assay, planktonic cells; format: cell-based; conditions: S. aureus, mean; for MIC: Staphylococcus aureus
Procedure: The checkerboard assay, as previously described, was used for the determination of the fractional inhibitory concentration index (FICI). Briefly, 50 µL of MHB was distributed into each well of a 96-well microplate. ATBs were serially diluted along the abscissa, and NPs were serially diluted along the ordinate. Then, 100 µL of bacterial inoculum (1.5 × 10^6 CFU/mL) was added to each well and incubated at 37°C for 24 h. The final concentration ranged from 0.125 to 128 µg/mL for ATBs and 4–512 µg/mL for NPs. After incubation, a volume of 40 µL of INT solution (0.2 mg/mL) was added to each well, and the microplate was incubated at 37°C for 30 min. The wells containing bacterial inoculum and MHB were used as a positive control, while wells containing only MHB + 1% glucose were used as a negative control and used as a blank. Viable bacteria cells change the yellow dye of INT to a pink color. The MICs were considered to be the lowest NP concentrations that prevented the color change medium. Subsequently, the FICI was calculated according to the formula FICI = (MIC of the ATBs in combination/MIC of the ATBs alone) + (MIC of a natural substance in combination/MIC of the natural substance alone). FICI values were interpreted as follows: synergy when FICI ≤ 0.5; additive when 0.5 < FICI ≤ 1; indifference when 1 < FICI ≤ 4; and antagonism when FICI > 4.

[6] = system: Staphylococcus epidermidis biofilm; assay: Checkerboard combination assay, biofilm eradication; format: cell-based
Procedure: The effect of the combination of ATBs with NPs on the preformed biofilm was evaluated by determining the FICI, as described above for biofilm formation, with slight modifications. After biofilm formation for 24 h, the plate was gently emptied and washed three times with PBS. Then, 50 µL of ATBs and 50 µL of NPs were introduced to the plate. The final concentration ranges from 0.0625 to 128 µg/mL and from 4 to 512 µg/mL for ATBs and NPs, respectively, and is incubated at 37°C for 24 h. After incubation, the medium was gently removed, and the plate was washed three times with PBS. At the end of the incubation time, the MTT reduction assay was performed, and the MBEC was determined. To assess the effect of the combination, the FICI was calculated and interpreted as described above.

[7] = Staphylococcus aureus, antibiotics, read-out: MBC
[8] = Staphylococcus aureus, read-out: MIC
[9] = Staphylococcus saprophyticus, antibiotics, read-out: MBC
[10] = Staphylococcus saprophyticus, read-out: MIC
[11] = S. epidermidis biofilm eradication, antibiotic alone, mean MBEC
[12] = Staphylococcus aureus, natural products, read-out: MBC
[13] = Staphylococcus saprophyticus, natural products, read-out: MBC

MIC [1, 8]	MIC [2, 10]	MIC ([5]; 24 h, read-out: MIC alone, ATB)	MIC ([5]; read-out: MIC alone, ATB)	MIC ([5]; 24 h, read-out: MIC alone, NPs)	MIC ([5]; read-out: MIC alone, NPs)	SMILES	MBC [1, 7]	MBC [2, 9]	minimal effective concentration [3]	minimal effective concentration [4]	MBEC Alone ATB [6, 11]	MBC [1, 12]	MBC [2, 13]	also measured
213 µg/mL (≈ 470 µM)	192 µg/mL (≈ 423 µM)	213 µg/mL	213 µg/mL	–	–	C=CC1=C(C(=O)O)N2C(=O)[C@@H](NC(=O)/C(=N\OCC(=O)O)c3csc(N)n3)[C@H]2SC1 [Cefixime, cefixime]	> 128 µg/mL	> 128 µg/mL	48 µg/mL	42.7 µg/mL	42.66 µg/mL	–	–	–
139 µg/mL	149 µg/mL	–	–	139 µg/mL	139 µg/mL	COc1ccc2cc3[n+](cc2c1OC)CCc1cc2c(cc1-3)OCO2 [Berberine, berberine]	–	–	85.3 µg/mL	171 µg/mL	–	> 1020 µg/mL	> 1020 µg/mL	MBEC Alone NPs ([6]; S. epidermidis biofilm eradication, natural product alone, mean MBEC, listed as Ber): 170.66 µg/mL and 149.33 µg/mL and 213.33 µg/mL
–	171 µg/mL (≈ 463 µM)	–	–	235 µg/mL	235 µg/mL	COc1cc(/C=C/C(=O)CC(=O)/C=C/c2ccc(O)c(OC)c2)ccc1O [Curcumin, curcumin]	–	–	107 µg/mL	107 µg/mL	–	> 1020 µg/mL	> 1020 µg/mL	MIC ([1]; Staphylococcus aureus, 24 h, read-out: MIC): 244 µg/mL (≈ 661 µM); MBEC Alone NPs ([6]; S. epidermidis biofilm eradication, natural product alone, mean MBEC, listed as Cur): 106.66 µg/mL and 128 µg/mL
86.7 µg/mL (≈ 237 µM)	22 µg/mL (≈ 60.2 µM)	86.7 µg/mL	86.7 µg/mL	–	–	CC1(C)S[C@@H]2[C@H](NC(=O)[C@H](N)c3ccc(O)cc3)C(=O)N2[C@H]1C(=O)O [Amoxicillin, amoxicillin]	> 128 µg/mL	> 128 µg/mL	9 µg/mL	16 µg/mL	16 µg/mL	–	–	–
4.33 µg/mL (≈ 7.39 µM)	22 µg/mL (≈ 37.6 µM)	4.33 µg/mL	4.33 µg/mL	–	–	NCC[C@H](O)C(=O)N[C@@H]1C[C@H](N)[C@@H](O[C@H]2O[C@H](CN)[C@@H](O)[C@H](O)[C@H]2O)[C@H](O)[C@H]1O[C@H]1O[C@H](CO)[C@@H](O)[C@H](N)[C@H]1O [Amikacin, amikacin]	> 128 µg/mL	> 128 µg/mL	2.08 µg/mL	21.3 µg/mL	21.33 µg/mL	–	–	–
6.16 µg/mL (≈ 13.9 µM)	32.2 µg/mL (≈ 72.4 µM)	6.16 µg/mL	6.16 µg/mL	–	–	C[C@H]1c2cccc(O)c2C(=O)C2=C(O)[C@]3(O)C(=O)C(C(N)=O)=C(O)[C@@H](N(C)C)[C@@H]3[C@@H](O)[C@@H]21 [Doxycycline, doxycycline]	32.7 µg/mL (≈ 73.5 µM)	> 128 µg/mL	0.5 µg/mL	16 µg/mL	16 µg/mL	–	–	MBEC Alone ATB ([6]; S. epidermidis, biofilm eradication, mean): 16 µg/mL

The next lines start with the compound.

SMILES	MIC [1, 8]	MIC [2, 10]	MIC ([5]; 24 h, read-out: MIC alone, ATB)	MIC ([5]; read-out: MIC alone, ATB)	MIC ([5]; 24 h, read-out: MIC alone, NPs)	MIC ([5]; read-out: MIC alone, NPs)	MBC [1, 7]	MBC [2, 9]	minimal effective concentration [3]	minimal effective concentration [4]	MBEC Alone ATB [6, 11]	MBC [1, 12]	MBC [2, 13]	also measured
O=c1c(O)c(-c2ccc(O)c(O)c2)oc2cc(O)cc(O)c12 [Quercetin, quercetin]	341 µg/mL (≈ 1130 µM)	341 µg/mL (≈ 1130 µM)	–	–	427 µg/mL	341 µg/mL	–	–	427 µg/mL	299 µg/mL	–	> 1020 µg/mL	> 1020 µg/mL	–
CC1=CC(=O)c2c(O)cccc2C1=O [Plumbagin, plumbagin]	6 µg/mL (≈ 31.9 µM)	8.66 µg/mL (≈ 46 µM)	–	–	4.66 µg/mL	4.66 µg/mL	–	–	6.66 µg/mL	10.7 µg/mL	–	> 1020 µg/mL	> 1020 µg/mL	MBEC Alone NPs ([6]; S. epidermidis, biofilm eradication, mean, listed as Plu): 13.33 µg/mL and 16 µg/mL
NC[C@H]1O[C@H](O[C@H]2[C@H](O)[C@@H](O[C@H]3O[C@H](CO)[C@@H](O)[C@H](N)[C@H]3O)[C@H](N)C[C@@H]2N)[C@H](O)[C@@H](O)[C@@H]1O [Kanamycin, kanamycin]	–	–	–	–	–	–	–	–	–	–	13.33 µg/mL	–	–	MBC ([1]; antibiotics): 69.33 µg/mL (≈ 143 µM); MIC [1]: 22.66 µg/mL (≈ 46.8 µM); MBC ([2]; antibiotics): — (> 128 µg/mL for ATBs); MIC [2]: 14 µg/mL (≈ 28.9 µM); MBIC [3]: 4.08 µg/mL; MBEC [4]: 13.33 µg/mL; MIC alone, ATB [5]: 22.66 µg/mL
Cc1ccc(C(C)C)c(O)c1 [Thymol, thymol]	299 µg/mL (≈ 1990 µM)	341 µg/mL (≈ 2270 µM)	–	–	299 µg/mL	299 µg/mL	–	–	128 µg/mL	107 µg/mL	–	> 1020 µg/mL	> 1020 µg/mL	MBEC Alone NPs ([6]; S. epidermidis biofilm eradication, natural product alone, mean MBEC, listed as Thy): 128 µg/mL and 106.66 µg/mL
O=C(O)c1cc(O)c(O)c(O)c1 [Gallic acid, 3,4,5-trihydroxybenzoic acid]	427 µg/mL (≈ 2510 µM)	427 µg/mL (≈ 2510 µM)	–	–	427 µg/mL	427 µg/mL	–	–	427 µg/mL	267 µg/mL	–	> 1020 µg/mL	> 1020 µg/mL	MBEC Alone NPs ([6]; S. epidermidis biofilm eradication, natural product alone, mean MBEC, listed as Gal): 266.66 µg/mL and 298.66 µg/mL and 426.66 µg/mL
